Measured values reported in patent US12187728B2 (Raze Therapeutics, Inc., priority 2015, dated 2025).

Biological target: T1, Human MTHFD2 (Homo sapiens, UniProt P13995)
T1 construct: residues 36-350 in Uniport ID P13995; His6 (N); made in house; host or cells: E. coli
T1 sequence (P13995 36-350): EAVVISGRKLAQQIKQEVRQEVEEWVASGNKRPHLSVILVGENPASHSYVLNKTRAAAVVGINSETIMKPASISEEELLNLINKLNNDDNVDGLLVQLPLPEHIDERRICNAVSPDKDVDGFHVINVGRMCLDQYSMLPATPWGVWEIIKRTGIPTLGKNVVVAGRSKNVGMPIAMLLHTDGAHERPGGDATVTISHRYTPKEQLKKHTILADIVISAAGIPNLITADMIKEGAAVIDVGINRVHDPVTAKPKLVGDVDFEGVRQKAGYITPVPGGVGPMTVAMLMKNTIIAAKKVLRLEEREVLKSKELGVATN
Test: MTHFD2 Activity Assay (dehydrogenase activity, diaphorase/resazurin coupled fluorescence)
Type: biochemical
Conditions: inhibitory activity (IC50 and/or binding constant); 0.2 nM MTHFD2, 11 concentrations
Summary of the method: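 Resorufin fluorescence (ex 525, em 598 nm) reports NADH formed by the dehydrogenase via diaphorase coupling. Enzyme (0.2 nM, residues 36-350, N-His6) sat with compound 15 min before 70 μM CH2-THF and 1 mM NAD+ started a 30 min reaction. IC50s come from 4-parameter fits over 11 concentrations.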

IC50 [µM]	Compound
0.01 to 1	Cn1c(N[C@H]2CCC[C@H]2O)nc2c1c(=O)n(Cc1ccc(Cl)c(Cl)c1)c(=O)n2C [Example 94, 1-[(3,4-dichlorophenyl)methyl]-8-{[(1S,2R)-2-hydroxycyclopentyl]amino}-3,7-dimethyl-2,3,6,7-tetrahydro-1H-purine-2,6-dione]
0.01 to 1	Cn1c(NC2(C(=O)O)CC2)nc2c1c(=O)n(Cc1ccc(Cl)c(Cl)c1)c(=O)n2C [Example 147, 1-(1-(3,4-dichlorobenzyl)-3,7-dimethyl-2,6-dioxo-2,3,6,7-tetrahydro-1H-purin-8-ylamino)cyclopropanecarboxylic acid]
5 to 10	Cn1c(Nc2ccncc2)nc2c1c(=O)n(Cc1cc3ccncc3[nH]1)c(=O)n2C [Example 393, 1-((1H-pyrrolo[2,3-c]pyridin-2-yl)methyl)-3,7-dimethyl-8-(pyridin-4-ylamino)-1H-purine-2,6(3H,7H)-dione]
> 10	Cn1c(NCCCO)nc2c1c(=O)n(Cc1ccc(Cl)c(CO)c1)c(=O)n2C [Example 166, 1-{[4-chloro-3-(hydroxymethyl)phenyl]methyl}-8-[(3-hydroxypropyl)amino]-3,7-dimethyl-2,3,6,7-tetrahydro-1H-purine-2,6-dione]
1 to 5	Cn1c(N[C@@H]2CCC[C@@H]2C(=O)O)nc2c1c(=O)n(Cc1ccc(C(F)(F)F)cc1)c(=O)n2C [Example 110, (1S,2R)-2-(3,7-dimethyl-2,6-dioxo-1-(4-(trifluoromethyl)benzyl)-2,3,6,7-tetrahydro-1H-purin-8-ylamino)cyclopentanecarboxylic acid]
1 to 5	Cn1c(NCc2cnccn2)nc2c1c(=O)n(Cc1ccc(Cl)c(Cl)c1)c(=O)n2C [Example 116, 1-(3,4-dichlorobenzyl)-3,7-dimethyl-8-(pyrazin-2-ylmethylamino)-1H-purine-2,6(3H,7H)-dione]
0.01 to 1	Cn1c(N[C@H]2C[C@H](C(=O)O)C2)nc2c1c(=O)n(Cc1cc3ccccc3[nH]1)c(=O)n2C [Example 289, (1R,3R)-3-(1-((1H-indol-2-yl)methyl)-3,7-dimethyl-2,6-dioxo-2,3,6,7-tetrahydro-1H-purin-8-ylamino)cyclobutanecarboxylic acid]
0.01 to 1	CCOC(=O)[C@H]1C[C@@H](Nc2nc3c(c(=O)n(Cc4ccc(Cl)c(Cl)c4)c(=O)n3C)n2C)C1 [Example 258, (±)-(cis)-ethyl 3-(1-(3,4-dichlorobenzyl)-3,7-dimethyl-2,6-dioxo-2,3,6,7-tetrahydro-1H-purin-8-ylamino)cyclobutanecarboxylate]
0.01 to 1	Cn1c([C@H](N)Cc2cccnc2)nc2c1c(=O)n(Cc1cc3c(Cl)cccc3[nH]1)c(=O)n2C [Example 470, (R)-8-(1-amino-2-(pyridin-3-yl)ethyl)-1-((4-chloro-1H-indol-2-yl)methyl)-3,7-dimethyl-1H-purine-2,6(3H,7H)-dione]
0.01 to 1	CN(C(=O)CCc1nccc(Nc2nc3c(c(=O)n(Cc4cc5c(Cl)cccc5[nH]4)c(=O)n3C)n2C)n1)C1CC1 [Example 414, 3-(4-(1-((4-chloro-1H-indol-2-yl)methyl)-3,7-dimethyl-2,6-dioxo-2,3,6,7-tetrahydro-1H-purin-8-ylamino)pyrimidin-2-yl)-N-cyclopropyl-N-methylpropanamide]
1 to 5	COCC1CCC(Nc2nc3c(c(=O)n(Cc4ccc(Cl)c(Cl)c4)c(=O)n3C)n2C)C1 (stereo not drawn) [Example 267, 1-(3,4-dichlorobenzyl)-8-(3-(methoxymethyl)cyclopentylamino)-3,7-dimethyl-1H-purine-2,6(3H,7H)-dione]
5 to 10	Cn1c(N)nc2c1c(=O)n(Cc1ccc(Cl)c(Cl)c1)c(=O)n2C [Example 153, 8-amino-1-(3,4-dichlorobenzyl)-3,7-dimethyl-1H-purine-2,6(3H,7H)-dione]
0.01 to 1	Cn1c(NCCOCCO)nc2c1c(=O)n(Cc1ccc(Cl)c(Cl)c1)c(=O)n2C [Example 54, 1-[(3,4-dichlorophenyl)methyl]-8-{[2-(2-hydroxyethoxy)ethyl]amino}-3,7-dimethyl-2,3,6,7-tetrahydro-1H-purine-2,6-dione]
> 10	COc1ccc2c(c1)cc(Cn1c(=O)c3c(ncn3C)n(C)c1=O)n2C [Example 238, 1-((5-methoxy-1-methyl-1H-indol-2-yl)methyl)-3,7-dimethyl-1H-purine-2,6(3H,7H)-dione]
0.01 to 1	Cn1c(Nc2cccnc2)nc2c1c(=O)n(Cc1cc3c(Cl)cccc3[nH]1)c(=O)n2C [Example 343, 1-((4-chloro-1H-indol-2-yl)methyl)-3,7-dimethyl-8-(pyridin-3-ylamino)-1H-purine-2,6(3H,7H)-dione]
0.01 to 1	Cn1c(Cn2c(=O)c3c(nc(CCN4CCOCC4)n3C)n(C)c2=O)cc2cc(Cl)ccc21 [Example 225, 1-((5-chloro-1-methyl-1H-indol-2-yl)methyl)-3,7-dimethyl-8-(2-morpholinoethyl)-1H-purine-2,6(3H,7H)-dione]
0.01 to 1	Cn1c(C2CCCCN2)nc2c1c(=O)n(Cc1cc3c(Cl)cccc3[nH]1)c(=O)n2C (stereo not drawn) [Example 430, 1-((4-chloro-1H-indol-2-yl)methyl)-3,7-dimethyl-8-(piperidin-2-yl)-3,7-dihydro-1H-purine-2,6-dione]
1 to 5	Cn1c(Nc2cccc(C3CC(O)C3)n2)nc2c1c(=O)n(Cc1ccc(Cl)c(Cl)c1)c(=O)n2C (stereo not drawn) [Example 352, 1-(3,4-diclorobenzyl)-8-(6-(3-hydroxycyclobutyl)pyridine-2-ylamino)-3,7-dimethyl-1H-purine-2,6(3H,7H)-dione]
1 to 5	Cn1c(Nc2cc(CCC(=O)O)ccn2)nc2c1c(=O)n(Cc1ccc(Cl)c(Cl)c1)c(=O)n2C [Example 281, 3-(2-(1-(3,4-dichlorobenzyl)-3,7-dimethyl-2,6-dioxo-2,3,6,7-tetrahydro-1H-purin-8-ylamino)pyridin-4-yl)propanoic acid]
5 to 10	Cn1c(NCc2ccccc2)nc2c1c(=O)n(Cc1ccc(Cl)c(Cl)c1)c(=O)n2C [Example 137, 8-(benzylamino)-1-(3,4-dichlorobenzyl)-3,7-dimethyl-1H-purine-2,6(3H,7H)-dione]
1 to 5	Cn1c(NCCCO)nc2c1c(=O)n(Cc1ccc(C(F)(F)F)c(Cl)c1)c(=O)n2C [Example 73, 1-{[3-chloro-4-(trifluoromethyl)phenyl]methyl}-8-[(3-hydroxypropyl)amino]-3,7-dimethyl-2,3,6,7-tetrahydro-1H-purine-2,6-dione]
0.01 to 1	Cn1c(NC2CC2)nc2c1c(=O)n(Cc1ccc(Cl)c(Cl)c1)c(=O)n2C [Example 271, 8-(cyclopropylamino)-1-[(3,4-dichlorophenyl)methyl]-3,7-dimethyl-purine-2,6-dione]
0.01 to 1	Cn1c(Nc2cccc(C3CCC(O)C3)n2)nc2c1c(=O)n(Cc1cc3c(Cl)cccc3[nH]1)c(=O)n2C (stereo not drawn) [Example 351, 1-((4-chloro-1H-indol-2-yl)methyl)-8-(6-(3-hydroxycyclopentyl)pyridin-2-ylamino)-3,7-dimethyl-1H-purine 2,6(3H,7H)-dione]
> 10	Cn1c(N[C@@H]2CCCC[C@H]2O)nc2c1c(=O)n(Cc1ccc(C(F)(F)F)cc1)c(=O)n2C [Example 113, 8-((1R,2R)-2-hydroxycyclohexylamino)-3,7-dimethyl-1-(4-(trifluoromethyl)benzyl)-1H-purine-2,6(3H,7H)-dione]
5 to 10	CCOC(=O)Cn1c(=O)n(Cc2ccc(Cl)c(Cl)c2)c(=O)c2c1nc(NCCCO)n2C [Example 98, Ethyl 2-(1-(3,4-dichlorobenzyl)-8-((3-hydroxypropyl)amino)-7-methyl-2,6-dioxo-1,2,6,7-tetrahydro-3H-purin-3-yl)acetate]
0.01 to 1	Cn1c(Nc2ccnc([C@H]3C[C@@H]3C(=O)O)c2)nc2c1c(=O)n(Cc1ccc(Cl)c(Cl)c1)c(=O)n2C (racemic) [Example 279, (±)-trans-2-(4-((1-(3,4-dichlorobenzyl)-3,7-dimethyl-2,6-dioxo-2,3,6,7-tetrahydro-1H-purin-8-yl)amino)pyridin-2-yl)cyclopropanecarboxylic acid]
1 to 5	Cn1c(Nc2cc[nH]n2)nc2c1c(=O)n(Cc1ccc(Cl)c(Cl)c1)c(=O)n2C [Example 141, 8-(1H-pyrazol-3-ylamino)-1-(3,4-dichlorobenzyl)-3,7-dimethyl-1H-purine-2,6(3H,7H)-dione]
0.01 to 1	Cn1c(Nc2ccnc([C@H]3C[C@H]3C(=O)O)c2)nc2c1c(=O)n(Cc1ccc(Cl)c(Cl)c1)c(=O)n2C (racemic) [Example 332, (±)-cis-2-(4-((1-(3,4-dichlorobenzyl)-3,7-dimethyl-2,6-dioxo-2,3,6,7-tetrahydro-1H-purin-8-yl)amino)pyridin-2-yl)cyclopropanecarboxylic acid]
0.01 to 1	Cn1c(Nc2ccc(C#N)nc2)nc2c1c(=O)n(Cc1cc3c(Cl)cccc3[nH]1)c(=O)n2C [Example 427, 5-(1-((4-chloro-1H-indol-2-yl)methyl)-3,7-dimethyl-2,6-dioxo-2,3,6,7-tetrahydro-1H-purin-8-ylamino)picolinonitrile]
1 to 5	Cn1c(NC2CCCC(N)C2)nc2c1c(=O)n(Cc1ccc(Cl)c(Cl)c1)c(=O)n2C (stereo not drawn) [Example 85, 8-((3-aminocyclohexyl)amino)-1-(3,4-dichlorobenzyl)-3,7-dimethyl-3,7-dihydro-1H-purine-2,6-dione]
